Counter-ions that a name gives are not always drawn.
Experiments:
Bioavailability = conditions: in vivo
[1] = system: conscious dogs having renal hypertension; test: Blood pressure (MAP, telemetry) in conscious dogs having renal hypertension; format: in vivo, dog (German sheepdogs); conditions: FIG. 1, conscious renal hypertensive dogs
Experimental: The antihypertensive effect of the combination was investigated in conscious dogs having renal hypertension. The hypertension was produced in German sheepdogs (weight 23-30 kg) using known methods in which one kidney is wrapped with cellophane and a stenosis is formed in the renal artery of the contralateral kidney using an occluder. The blood pressure was measured with a catheter implanted in the abdominal aorta and connected to a transmitter in the abdominal, cavity (telemetry). FIG. 1 illustrates the effect of cilazapril (10 mg/kg per os) and Compound A (30 mg/kg per os) alone, as well as, the effect of the simultaneous administration of the same dosages of the two substances (n=3 dogs for cilazapril and the combination, n=4 dogs for Compound A).

[2] = system: media of the right carotid artery; test: Cross-section surface (area) of the media of the carotid artery in rats after 15 days of treatment; format: in vivo, rat (male, strain RoRo); conditions: rat carotid artery; for area of the media: cilazapril 10 mg/kg daily in feed, Compound A 30 mg/kg by probang, control 89000±5000 μm^2, combination p<0.05 (Student t-test); for effect of individual treatment on media area: result in words
Experimental: The influence of the individual compounds and their combination on the blood vessels was investigated in rats. Male rats, strain: RoRo (weight about 400 g; aged 4-5 months; Institut fur Biologisch-Medizinische Forschung, Fullinsdorf, CH) were used. The animals were divided randomly into a control group and into treatment groups. The duration of the treatment was 15 days. Cilazapril was admixed with the feed in an amount such that the daily intake was on average 10 mg/kg and Compound A (30 mg/kg) was administered using a probang. The control animals received the same laboratory feed without additive.
After 15 days, the rats were anaesthetized with ether and the carotid artery was fixed by perfusion with fixative agent (2.5% glutaraldehyde in 0.1M phosphate buffer, pH 7.4). For this, a probe was passed through the left ventricle of the heart into the ascending aorta (inflow) and a second probe was pushed through the right ventricle into the auricle (discharge).The vascular system was firstly rinsed with 10 ml of buffered isotonic NaCl solution and then fixed for 15 minutes with fixative at a pressure of 11.7 kPa. Subsequently, the right carotid artery was dissected, freed from adhering tissue and placed in 2.5% glutaraldehyde for further fixation. Each artery was divided into five vascular segments from the distal end to the proximal end, dehydrated and embedded in EPON 12 (Registered Mark of Shell A.G.). The middle segment was used for the morphological investigations. Semi-thin cross-sections (1 μm thick) were colored with toluidine blue and basic fuchsin. The cross-section surface of the media was measured with the morphometry system DIASYS (Datalab, Heinz Meyer, CH-3367 Thorigen).

| SMILES | bioavailability (Bioavailability) | lowering of blood pressure (MAP) ([1]; Compound A 30 mg/kg per os alone, n=4) | area of the media [2] | effect of individual treatment on media area [2] | effect on blood pressure (MAP) ([1]; cilazapril 10 mg/kg per os, Compound A 30 mg/kg per os, alone or simultaneously, result in words) |
| --- | --- | --- | --- | --- | --- |
| COCC(=O)OC1(CCN(C)CCCc2nc3ccccc3[nH]2)CCc2cc(F)ccc2C1C(C)C (centres unmarked) [Compound A, [1S,2S]-2-[2-[[3-(2-benzimidazolyl)propyl]methylamino]ethyl]-6-fluoro-1,2,3,4-tetrahydro-1-isopropyl-2-naphthylmethoxyacetate dihydrochloride] | 80 to 100% | 10-20 mmHg | 87000±4000 μm^2 | without effect | – |
| CCOC(=O)[C@H](CCc1ccccc1)N[C@H]1CCCN2CCC[C@@H](C(=O)O)N2C1=O [cilazapril, 9(S)-[1(S)-ethoxycarbonyl-3-phenylpropylamino]octahydro-10-oxo-6H-pyridazo[1,2-a][1,2]diazepine-1(S)-carboxylic acid] | 70% | – | 84000±11000 μm^2 | without effect | without effect |
